Measurements as given in ChEMBL document CHEMBL1201862, “PubChem BioAssay data set” (2004).
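Grown in 96-well plates, cells were treated for 48 hours with each compound at five concentrations. Insufficient inhibition: endpoint recorded as highest concentration tested. GI50: concentration for 50% inhibition of growth.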 Activity calls are given as the source filed them. Cut-off read from the data, not from the text of the source: active = GI50 up to about 1.1 µM and inactive = higher.

Columns and labels:
Test in all cases: NCI-60 cell line screen, 48 h
[1] = tested on: K562
[2] = tested on: OVCAR-8
[3] = tested on: UO-31
[4] = tested on: SNB-75
[5] = tested on: COLO 205
[6] = tested on: MOLT-4
[7] = tested on: SK-MEL-5
[8] = tested on: KM12
[9] = tested on: SNB-19
[10] = tested on: NCI-H226
[11] = tested on: MCF7
[12] = tested on: OVCAR-3
[13] = tested on: MDA-MB-231
[14] = tested on: TK-10
[15] = tested on: MDA-N
[16] = tested on: HCT-116
[17] = tested on: NCI/ADR-RES
[18] = tested on: T47D
[19] = tested on: HCC 2998
[20] = tested on: HOP-92

Structure (SMILES)	GI50 [1]	GI50 [2]	GI50 [3]	GI50 [4]	GI50 [5]	GI50 [6]	GI50 [7]	GI50 [8]	GI50 [9]	GI50 [10]	GI50 [11]	GI50 [12]	GI50 [13]	GI50 [14]	GI50 [15]	GI50 [16]	GI50 [17]	GI50 [18]	GI50 [19]	GI50 [20]
OC1C2CN3CCN(C2)CC1(c1ccccc1)C3 (stereo unspecified)	> 100 µM (inactive)	> 100 µM (inactive)	> 100 µM (inactive)	> 100 µM (inactive)	> 100 µM (inactive)	> 100 µM (inactive)	> 100 µM (inactive)	> 100 µM (inactive)	> 100 µM (inactive)	> 100 µM (inactive)	> 100 µM (inactive)	> 100 µM (inactive)	> 100 µM (inactive)	> 100 µM (inactive)	> 100 µM (inactive)	> 100 µM (inactive)	> 100 µM (inactive)	–	–	–
CSS(C)(=O)=O	31.3 µM (inactive)	27.4 µM (inactive)	24.5 µM (inactive)	32.3 µM (inactive)	1.95 µM (inactive)	2.43 µM (inactive)	61.5 µM (inactive)	34.3 µM (inactive)	> 100 µM (inactive)	21.4 µM (inactive)	26.7 µM (inactive)	16.7 µM (inactive)	30.8 µM (inactive)	24.7 µM (inactive)	–	58.6 µM (inactive)	58.9 µM (inactive)	15.1 µM (inactive)	27.8 µM (inactive)	–
N#Cc1nc(COCCOCc2ccc(F)cc2)oc1N	> 100 µM (inactive)	> 100 µM (inactive)	50.4 µM (inactive)	> 100 µM (inactive)	> 100 µM (inactive)	> 100 µM (inactive)	> 100 µM (inactive)	> 100 µM (inactive)	–	> 100 µM (inactive)	> 100 µM (inactive)	> 100 µM (inactive)	> 100 µM (inactive)	> 100 µM (inactive)	–	> 100 µM (inactive)	> 100 µM (inactive)	> 100 µM (inactive)	> 100 µM (inactive)	–
O=S(=O)(O)c1cc(/N=N/c2c(O)ccc3ccccc23)cc2c(S(=O)(=O)O)cccc12	> 100 µM (inactive)	> 100 µM (inactive)	> 100 µM (inactive)	> 100 µM (inactive)	> 100 µM (inactive)	> 100 µM (inactive)	> 100 µM (inactive)	> 100 µM (inactive)	> 100 µM (inactive)	> 100 µM (inactive)	> 100 µM (inactive)	> 100 µM (inactive)	> 100 µM (inactive)	> 100 µM (inactive)	–	> 100 µM (inactive)	> 100 µM (inactive)	–	> 100 µM (inactive)	> 100 µM (inactive)
Cc1ccc(Oc2ccc(C(=O)c3cccc(C(=O)c4ccc(Oc5ccc(C)cc5)cc4)n3)cc2)cc1	> 100 µM (inactive)	> 100 µM (inactive)	> 100 µM (inactive)	42.2 µM (inactive)	> 100 µM (inactive)	> 100 µM (inactive)	> 100 µM (inactive)	> 100 µM (inactive)	> 100 µM (inactive)	> 100 µM (inactive)	–	> 100 µM (inactive)	–	> 100 µM (inactive)	–	> 100 µM (inactive)	–	–	> 100 µM (inactive)	> 100 µM (inactive)
O=S(=O)(N/N=C1\CC2CCC1C2)c1ccccc1 (stereo unspecified)	> 100 µM (inactive)	> 100 µM (inactive)	> 100 µM (inactive)	> 100 µM (inactive)	> 100 µM (inactive)	> 100 µM (inactive)	> 100 µM (inactive)	> 100 µM (inactive)	> 100 µM (inactive)	> 100 µM (inactive)	> 100 µM (inactive)	> 100 µM (inactive)	–	> 100 µM (inactive)	> 100 µM (inactive)	> 100 µM (inactive)	> 100 µM (inactive)	–	–	> 100 µM (inactive)
Oc1cc(-c2ccccn2)nc2cc(F)ccc12	44.9 µM (inactive)	> 100 µM (inactive)	> 100 µM (inactive)	26.5 µM (inactive)	74.6 µM (inactive)	> 100 µM (inactive)	45.1 µM (inactive)	36.1 µM (inactive)	> 100 µM (inactive)	> 100 µM (inactive)	–	> 100 µM (inactive)	–	> 100 µM (inactive)	–	43.3 µM (inactive)	–	–	> 100 µM (inactive)	48.2 µM (inactive)
COC(=O)CCC(NC(=S)N/N=C(\C)c1nccs1)C(=O)OC (stereo unspecified)	16.2 µM (inactive)	68.4 µM (inactive)	49.3 µM (inactive)	68.2 µM (inactive)	11.3 µM (inactive)	> 10 µM (inactive)	36.4 µM (inactive)	> 100 µM (inactive)	> 100 µM (inactive)	53.7 µM (inactive)	–	31.3 µM (inactive)	–	> 100 µM (inactive)	–	34.4 µM (inactive)	–	–	52.5 µM (inactive)	> 100 µM (inactive)
Cc1cc2nc3c(C#N)c4c(c(Nc5ccc(Cl)cc5)n3c2cc1C)CCC4	–	19.3 µM (inactive)	–	30.5 µM (inactive)	25.2 µM (inactive)	6.03 µM (inactive)	18.2 µM (inactive)	32.9 µM (inactive)	–	22.9 µM (inactive)	–	17.9 µM (inactive)	20.8 µM (inactive)	11.1 µM (inactive)	–	16.7 µM (inactive)	22.6 µM (inactive)	30.5 µM (inactive)	–	23.6 µM (inactive)
CC(=O)N(C)c1ccc(Nc2ccnc3ccc4nn(C)nc4c23)cc1	–	36.1 µM (inactive)	9.02 µM (inactive)	21.3 µM (inactive)	19.1 µM (inactive)	13.6 µM (inactive)	19.9 µM (inactive)	24.4 µM (inactive)	37.3 µM (inactive)	15.6 µM (inactive)	13.4 µM (inactive)	19.3 µM (inactive)	–	22.3 µM (inactive)	36.1 µM (inactive)	19 µM (inactive)	28.1 µM (inactive)	20.1 µM (inactive)	–	–
Clc1cc2ns[s+]c2cc1Cl	4.55 µM (inactive)	> 56.5 µM (inactive)	28.6 µM (inactive)	21 µM (inactive)	> 88.3 µM (inactive)	29.9 µM (inactive)	> 37 µM (inactive)	41 µM (inactive)	> 74.8 µM (inactive)	> 100 µM (inactive)	–	65 µM (inactive)	–	> 44.9 µM (inactive)	–	41 µM (inactive)	–	–	59.7 µM (inactive)	36.1 µM (inactive)
N#C/C(=C\c1cccc(O)c1)C(N)=O	> 100 µM (inactive)	> 100 µM (inactive)	> 100 µM (inactive)	22.3 µM (inactive)	> 100 µM (inactive)	> 100 µM (inactive)	> 100 µM (inactive)	> 100 µM (inactive)	> 100 µM (inactive)	> 100 µM (inactive)	–	> 100 µM (inactive)	–	> 100 µM (inactive)	–	> 100 µM (inactive)	–	–	> 100 µM (inactive)	> 100 µM (inactive)
O=C(c1ccccc1)c1cccc(C(=O)c2ccccc2)c1	> 100 µM (inactive)	> 100 µM (inactive)	37.2 µM (inactive)	82 µM (inactive)	> 100 µM (inactive)	67.9 µM (inactive)	78.9 µM (inactive)	44.1 µM (inactive)	> 100 µM (inactive)	34.3 µM (inactive)	–	> 100 µM (inactive)	–	> 100 µM (inactive)	–	> 100 µM (inactive)	–	–	> 100 µM (inactive)	53 µM (inactive)
c1ccc(-c2ccc(-c3ccc(C4=NCCN4)cc3)o2)cc1	1.42 µM (inactive)	3.59 µM (inactive)	1.71 µM (inactive)	2.38 µM (inactive)	1.73 µM (inactive)	1.82 µM (inactive)	2.08 µM (inactive)	1.92 µM (inactive)	2.4 µM (inactive)	2.99 µM (inactive)	1.91 µM (inactive)	5.5 µM (inactive)	2 µM (inactive)	5.41 µM (inactive)	–	1.77 µM (inactive)	4.3 µM (inactive)	2.65 µM (inactive)	1.35 µM (inactive)	2.17 µM (inactive)
COc1cc2c(c(OC)c1OC)-c1ccc(SC)c(=O)cc1C(CC(=O)Oc1ccccc1F)C2 (stereo unspecified)	< 0.0075 µM (active)	0.0328 µM (active)	0.127 µM (active)	> 7.5 µM (inactive)	0.0136 µM (active)	0.0531 µM (active)	0.0215 µM (active)	< 0.0075 µM (active)	0.0139 µM (active)	0.0413 µM (active)	–	0.0119 µM (active)	–	> 7.5 µM (inactive)	–	< 0.0075 µM (active)	–	–	0.0307 µM (active)	0.0377 µM (active)
CC(=O)O[C@H]1CCC2[C@@H]3CCC4=C(O)C(=O)C(C#N)C[C@]4(C)C3CC[C@@]21C (stereo partly specified)	24.8 µM (inactive)	44.5 µM (inactive)	13.7 µM (inactive)	12.6 µM (inactive)	28.4 µM (inactive)	30.5 µM (inactive)	26.1 µM (inactive)	35.7 µM (inactive)	45.1 µM (inactive)	24.9 µM (inactive)	–	38.6 µM (inactive)	–	18.2 µM (inactive)	–	29.5 µM (inactive)	–	–	29 µM (inactive)	3.8 µM (inactive)
Cc1ccccc1NC(=O)c1nc(S)nc(N)c1-c1ccccc1C	> 100 µM (inactive)	> 100 µM (inactive)	> 100 µM (inactive)	1.74 µM (inactive)	> 100 µM (inactive)	> 100 µM (inactive)	> 100 µM (inactive)	> 100 µM (inactive)	> 100 µM (inactive)	> 100 µM (inactive)	–	> 100 µM (inactive)	–	> 100 µM (inactive)	–	> 100 µM (inactive)	–	–	> 100 µM (inactive)	> 100 µM (inactive)
